Consider seven molecules from ChEMBL document CHEMBL4251603, “Structure-activity studies on N-Substituted tranylcypromine derivatives lead to selective inhibitors of lysine specific demethylase 1 (LSD1) and potent inducers of leukemic cell differentiation” (Eur J Med Chem, 2018).

Data set [1] has as its target T1, Amine oxidase [flavin-containing] B (Homo sapiens, UniProt P27338).
T1 sequence (P27338 whole entry): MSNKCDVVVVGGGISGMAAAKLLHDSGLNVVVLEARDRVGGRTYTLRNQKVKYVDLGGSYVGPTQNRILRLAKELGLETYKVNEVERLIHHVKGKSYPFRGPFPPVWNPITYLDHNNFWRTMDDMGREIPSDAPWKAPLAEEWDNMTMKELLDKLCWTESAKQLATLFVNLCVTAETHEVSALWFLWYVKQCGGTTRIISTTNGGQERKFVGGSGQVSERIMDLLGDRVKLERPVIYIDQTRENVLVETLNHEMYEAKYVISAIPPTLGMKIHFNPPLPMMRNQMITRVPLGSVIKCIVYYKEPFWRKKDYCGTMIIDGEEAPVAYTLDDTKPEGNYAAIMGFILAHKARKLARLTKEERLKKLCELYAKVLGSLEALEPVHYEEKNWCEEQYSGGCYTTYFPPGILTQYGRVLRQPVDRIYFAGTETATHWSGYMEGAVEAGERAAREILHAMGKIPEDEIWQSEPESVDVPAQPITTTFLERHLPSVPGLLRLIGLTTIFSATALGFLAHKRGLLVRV
The data set can be described thus: Inhibition of MAO-B (unknown origin) using beetle luciferin derived luminogenic substrate preincubated for 15 mins followed by substrate addition measured after 60 mins by MAO-Glo assay.

The subject of data set [2] is THP-1. The data set is described as follows: Inhibition of colony formation in human THP1 cells at 0.5 uM after […] by light microscopic method relative to control. Format: functional.
Data set [3] addresses Lysine-specific histone demethylase 1A (Mus musculus) (UniProt Q6ZQ88). The data set is described as follows: Inhibition of LSD1 in mouse Hoxa9/Meis1 transformed progenitor cells assessed as induction of granulocytic differentiation at 50 to 100 nM up to 96 hrs by pappenheim staining based assay.
Data set [4] has the same target. The data set is described as follows: Inhibition of LSD1 in mouse Hoxa9/Meis1 transformed progenitor cells assessed as reduction in c-Kit positive cells at 100 nM after 96 hrs by flow cytometry. It is filed as cell-based. In general terms: A flow cytometer gives signals particle by particle.
Data set [5] addresses T2, Amine oxidase [flavin-containing] A (Homo sapiens, UniProt P21397).
T2 sequence (P21397 whole entry): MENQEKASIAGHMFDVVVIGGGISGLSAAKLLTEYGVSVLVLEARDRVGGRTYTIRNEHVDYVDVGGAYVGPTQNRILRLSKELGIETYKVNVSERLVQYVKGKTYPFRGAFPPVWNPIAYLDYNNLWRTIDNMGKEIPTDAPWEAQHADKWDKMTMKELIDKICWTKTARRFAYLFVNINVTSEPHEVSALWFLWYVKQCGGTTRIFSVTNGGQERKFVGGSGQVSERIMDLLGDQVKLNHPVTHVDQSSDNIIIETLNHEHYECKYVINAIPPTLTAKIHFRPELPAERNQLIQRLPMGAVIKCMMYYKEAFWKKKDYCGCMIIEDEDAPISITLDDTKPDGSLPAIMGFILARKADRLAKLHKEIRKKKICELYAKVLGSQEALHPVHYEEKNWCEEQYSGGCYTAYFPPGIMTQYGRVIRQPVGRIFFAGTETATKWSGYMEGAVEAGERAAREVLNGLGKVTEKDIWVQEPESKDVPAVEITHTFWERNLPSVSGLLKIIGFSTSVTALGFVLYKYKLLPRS

Data set [6] addresses Lysine-specific histone demethylase 1A (Homo sapiens, UniProt O60341).
Data set [7] deals with SJRH30. The data set is described as follows: Induction of cell death in human Rh30 cells at 50 to 100 nM after 72 hrs by propidium iodide/Hoechst 33342 staining based fluorescence microscopic analysis. It is filed as functional.
For data set [8], the system named is SJRH30. The data set can be described thus: Potentiation of JNJ-26481585-induced cell death in human Rh30 cells after 72 hrs by propidium iodide/Hoechst 33342 staining based fluorescence microscopic analysis. It is filed as functional.
The target in data set [9] is T1, Amine oxidase [flavin-containing] B. The data set can be described thus: (§1) Inhibition of MAO-B (unknown origin) at 250 uM using beetle luciferin derived luminogenic substrate preincubated for 15 mins followed by substrate addition measured after 60 mins by MAO-Glo assay relative to control. As to conditions: 1 h, 250 µM.
For data set [10], the system named is THP-1. The data set can be described thus: cells. Conditions: Homo sapiens, THP-1, 5 min, read-out: INH.
The target of another data set is T3, MAO-B (Homo sapiens, UniProt P27338).
T3 sequence (P27338 whole entry): T1 sequence (P27338 whole entry)
Described as §1. As to conditions: MAO-B enzyme (unknown origin), probe beetle luciferin derived luminogenic substrate.

The source made the active and inactive calls. The rule behind the calls is not given here.

By IC50 is commonly meant the concentration at which inhibition is half-maximal. Low readings indicate greater potency, high ones weaker potency. Take `O=[N+]([O-])c1cccc(CN[C@H]2C[C@@H]2c2ccccc2)c1` (relative stereo): the IC50 was found to be 1.4 µM in data set [1] and 0.488 µM in data set [5]. Moreover, in the data set on THP-1 [2], the inhibition at 0.5 µM came to 80%. For the same molecule, the inhibition result in data set [3] and in data set [4] was “Active” throughout.

In [6], `Cc1ccc(-c2ncc(OCC3CCNC3)cc2-c2ccc(C#N)cc2)cc1` (stereo unspecified) had an IC50 of 0.09 µM.

Consider `O=C(O)c1ccc(CN2CCC(CN[C@H]3C[C@@H]3c3ccccc3)CC2)cc1`, for which the result with SJRH30 [7] and with SJRH30 [8] was Active. This molecule also showed an IC50 in data set [6] of 1.7 µM.

Regarding `CNS(=O)(=O)c1ccc(CN[C@H]2C[C@@H]2c2ccccc2)cc1` (relative stereo), in [9], the “inhibition (INH)” value was “Not Active”. The result with SJRH30 [7] and with SJRH30 [8] was Active. In [5], this molecule displayed an IC50 of 17.1 µM. Besides, in the data set with THP-1 [10], the inhibition at 0.05 µM worked out at 80%.

`NS(=O)(=O)c1ccc(CN[C@H]2C[C@@H]2c2ccccc2)cc1` (relative stereo) showed an inhibition at 1 h, 250 µM on MAO-B of 42%. In addition, the outcome in the data set on SJRH30 [7] and in the data set on SJRH30 [8] was Active. Inhibition in data set [5] was half-maximal at 21.6 µM (IC50). For the same molecule, the inhibition at 0.05 µM in the data set on THP-1 [10] came to 80%.

`Clc1ccc(CN[C@H]2C[C@@H]2c2ccccc2)cc1` (relative stereo): the figures for the IC50 in [1] and in data set [5] were 14.1 µM and 0.206 µM, respectively. The inhibition at 0.5 µM in the data set with THP-1 [2] is 80%. Moreover, the inhibition result in data set [3] and in data set [4] was “Active” throughout.

In the case of `NC(=O)c1ccc(CN[C@H]2C[C@@H]2c2ccccc2)cc1` (relative stereo), the inhibition at 1 h, 250 µM against MAO-B is 50%. In [5], this molecule came in with an IC50 of 24.7 µM.
